Several values for one entry are separate records, joined by “and”; a condition that tells them apart may be missing. Equal values may be shown once.
Legend:
Assay type in all cases: in vivo
Ctenocephalides felis = test: Ctenocephalides felis-test (CTECFE); conditions: application rate of 100 ppm in cattle blood; adult unfed fleas; after 2 days
Description: (§1) Solvent: dimethyl sulfoxide
To produce a suitable preparation of active compound, 10 mg of active compound are dissolved in 0.5 ml solvent, and the concentrate is diluted with cattle blood to the desired concentration. Approximately 20 adult unfed (Ctenocepahlides felis) are placed in flea chambers. The blood chamber, sealed with parafilm on the bottom, are filled with cattle blood supplied with compound solution and placed on top of the flea chamber, so that the fleas are able to suck the blood. The blood chamber is heated to 37° C. whereas the flea chamber is kept at room temperature. After 2 days mortality in % is determined. 100% means that all the fleas have been killed; 0% means that none of the fleas have been killed.

Lucilia cuprina = Lucilia cuprina (48 h) larval test; conditions: application rate of 100 ppm; 1st instar larvae; after 48 hrs
Description: Species: Lucilia cuprina 1st instar larvae (age 24 hrs)
as §1
10 mg active compound are dissolve in 0.5 ml dimethyl sulfoxide. Serial dilutions are made to obtain the desired rates. Approximately 20 Lucilia cuprina 1st instar larvae are transferred into a test tube containing 1 cm^3 of minced horse meat and 0.5 ml aqueous dilution of test compound. After 48 hrs percentage of larval mortality are recorded. 100% efficacy all larvae are killed, % efficacy normally developed larvae after 48 hrs.

Aulacophora femoralis = test: Test against cucurbit leaf beetle (Aulacophora femoralis), leaf dip; conditions: active compound concentration of 500 ppm, second instar larvae on cucumber leaves, after 7 days; for pest or weed control at 500 ppm: Aulacophora, foliar, 168 h, read-out: insecticidal activity
Description: (§2) Unless not mentioned otherwise, the test solutions were prepared as follows:
(§3) Containing as solvent: Dimethylformamide, 3 parts by weight; and as emulsifier: Polyoxyethylene alkyl phenyl ether, 1 part by weight
(§4) To prepare the test solution, 1 part by weight of an active compound is mixed with the above-mentioned amount of solvent containing the above-mentioned amount of emulsifier, and the mixture is diluted with water to the desired concentration.
Leaves of cucumber were immersed in the test solution at the appropriate concentration, and the leaves were dried in air. The leaves were then put in a plastic cup containing sterilized black soil and five Aulacophora femoralis at second instar larvae were released in the cup. The cups were placed in a temperature-controlled chamber at 25° C. After 7 days, the number of dead larvae was counted, and thus the insecticidal activity was calculated. An insecticidal activity of 100% means that all larvae were killed, whereas an insecticidal activity of 0% means that no larva was killed.

Spodoptera litura = test: Test against tobacco cutworm (Spodoptera litura) larvae, leaf dip; conditions: active compound concentration of 100 ppm, third instar larvae on sweet potato leaves, after 7 days; for pest or weed control at 100 ppm: foliar, 168 h, read-out: insecticidal activity
Description: as §2, §3, §4
Leaves of sweet potato were immersed in the test solution at the appropriate concentration, and the leaves were dried in air. The leaves were then placed in a petri dish having a diameter of 9 cm, and ten Spodoptera litura at third instar larvae were released therein. The petri dishes were placed in a temperature-controlled chamber at 25° C. After 2 days and 4 days more sweet potato leaves were added. After 7 days, the number of dead larvae was counted to calculate the insecticidal activity. An insecticidal activity of 100% means that all larvae were killed, whereas an insecticidal activity of 0% means that no larva was killed. In the current test, the results of two petri dishes for each treatment were averaged.

Tetranychus urticae = test: Test against two-spotted spider mite (Tetranychus urticae), spray; conditions: active compound concentration of 500 ppm, adult mites on kidney bean, after 7 days; for pest or weed control at 500 ppm: Tetranychus urticae, 168 h, read-out: acaricidal activity
Description: as §2, §3, §4
50 to 100 adult mites of Tetranychus urticae were inoculated to leaves of kidney bean at two-leaf stage planted in a pot of 6 cm in diameter. After one day, test solution at the appropriate concentration was sprayed thereon in a sufficient amount using a spray gun. After the spraying, the plant pot was placed inside a greenhouse, and after 7 days, the acaricidal activity was calculated. An acaricidal activity of 100% means that all mites were killed, whereas an acaricidal activity of 0% means that no mite was killed.

Musca domestica = test: Musca domestica-test; conditions: application rate of 100 ppm; adults; after 2 days
Description: as §1
To produce a suitable preparation of active compound, 10 mg of active compound are dissolved in 0.5 ml solvent, and the concentrate is diluted with water to the desired concentration. Prior to the assay, a piece of kitchen sponge is soaked with a mixture of sugar and compound solution and placed into a container. 10 adults (Musca domestica) are placed into the container and closed with a perforated lid. After 2 days mortality in % is determined. 100% means that all the flies have been killed; 0% means that none of the flies have been killed.

Row | Compound | insecticidal activity (Aulacophora femoralis) [%] | insecticidal activity (Spodoptera litura) [%] | acaricidal activity (Tetranychus urticae) [%] | also measured
1 | N#Cc1ccc2cc(C(=O)Nc3c(Br)cc(C(F)(F)F)cc3Br)ccc2n1 [2-3] | 100 | – | – | activity (mortality) (Ctenocephalides felis): 90%; activity (larval mortality) (Lucilia cuprina): 80%
2 | CCc1cc(C(F)(C(F)(F)F)C(F)(F)F)cc(C)c1NC(=O)c1ccc2nc(Cl)ccc2c1 [2-29] | 100 | 100 | 100 | –
3 | CCc1cc(C(F)(C(F)(F)F)C(F)(F)F)cc(C)c1NC(=O)c1ccc2nc(C#N)ccc2c1 [2-31] | 100 | 100 | 100 | –
4 | Cc1cc(C(F)(C(F)(F)F)C(F)(F)F)cc(Br)c1NC(=O)c1ccc2nc(C#N)ccc2c1 [2-40] | 100 | 100 | 100 | activity (mortality) (Ctenocephalides felis): 95%
5 | CCc1cc(C(F)(C(F)(F)F)C(F)(F)F)cc(CC)c1NC(=O)c1ccc2nc(C#N)ccc2c1 [2-46] | 100 | 100 | 100 | –
6 | CCc1cc(C(F)(C(F)(F)F)C(F)(F)F)cc(Br)c1NC(=O)c1ccc2nc(C#N)ccc2c1 [2-49] | 100 | 100 | 100 | activity (mortality) (Ctenocephalides felis): 95%
7 | N#Cc1ccc2cc(C(=O)Nc3c(Br)cc(C(F)(C(F)(F)F)C(F)(F)F)cc3Br)ccc2n1 [2-64] | 100 | 100 | 100 | –
8 | N#Cc1ccc2cc(C(=O)Nc3c(Br)cc(C(F)(C(F)(F)F)C(F)(F)F)cc3SC(F)(F)F)ccc2n1 [2-66] | 100 | 100 | 100 | –
9 | CCc1cc(C(n2cc(Cl)cn2)(C(F)(F)F)C(F)(F)F)cc(C)c1NC(=O)c1ccc2nc(C#N)ccc2c1 [2-83] | 100 | 100 | 100 | –
10 | Cc1cc(C(F)(C(F)(F)F)C(F)(F)C(F)(F)F)cc(C)c1NC(=O)c1ccc2nc(C#N)ccc2c1 (centres unmarked) [2-87] | 100 | 100 | 100 | –
11 | CCc1cc(C(F)(C(F)(F)F)C(F)(F)C(F)(F)F)cc(C)c1NC(=O)c1ccc2ncccc2c1 (centres unmarked) [2-88] | 100 | 100 | – | activity (mortality) (Ctenocephalides felis): 95%
12 | CCc1cc(C(F)(C(F)(F)F)C(F)(F)C(F)(F)F)cc(C)c1NC(=O)c1ccc2nc(C#N)ccc2c1 (centres unmarked) [2-90] | 100 | 100 | 100 | activity (mortality) (Musca domestica): 80%
13 | O=C(Nc1c(Br)cc(C(F)(C(F)(F)F)C(F)(F)C(F)(F)F)cc1Br)c1ccc2ncccc2c1 (centres unmarked) [2-108] | 100 | 100 | – | activity (mortality) (Musca domestica): 80%; activity (mortality) (Ctenocephalides felis): 80% and 95%
14 | N#Cc1ccc2cc(C(=O)Nc3c(Br)cc(C(F)(C(F)(F)F)C(F)(F)C(F)(F)F)cc3Br)ccc2n1 (centres unmarked) [2-110] | 100 | 100 | 100 | –
15 | CCc1cc(C2(F)C(F)(F)C(F)(F)C(F)(F)C(F)(F)C2(F)F)cc(C)c1NC(=O)c1ccc2nc(C#N)ccc2c1 [2-130] | 100 | 100 | 100 | –
16 | N#Cc1ccc2cc(C(=O)Nc3c(Br)cc(C4(F)C(F)(F)C(F)(F)C(F)(F)C(F)(F)C4(F)F)cc3Br)ccc2n1 [2-133] | 100 | 100 | 100 | activity (mortality) (Ctenocephalides felis): 90%
17 | Cc1cc(C(F)(C(F)(F)F)C(F)(F)Br)cc(C)c1NC(=O)c1ccc2nc(C#N)ccc2c1 (centres unmarked) [2-191] | 100 | 100 | 100 | –
18 | CCc1cc(C(F)(C(F)(F)F)C(F)(F)Br)cc(C)c1NC(=O)c1ccc2ncccc2c1 (centres unmarked) [2-192] | 100 | – | 100 | –
19 | CCc1cc(C(F)(C(F)(F)F)C(F)(F)Br)cc(C)c1NC(=O)c1ccc2nc(C#N)ccc2c1 (centres unmarked) [2-194] | 100 | 100 | 100 | –
20 | N#Cc1ccc2cc(C(=O)Nc3c(Br)cc(C(F)(C(F)(F)F)C(F)(F)Br)cc3Br)ccc2n1 (centres unmarked) [2-197] | 100 | 100 | 100 | –
21 | O=C(Nc1c(I)cc(C(F)(C(F)(F)F)C(F)(F)Br)cc1I)c1ccc2c(ccc[n+]2[O-])c1 (centres unmarked) [2-199] | 100 | – | 100 | –
22 | N#Cc1ccc2cc(C(=O)Nc3c(Br)cc(C(F)(F)C(F)(F)F)cc3OC(F)F)ccc2n1 [2-221] | 100 | 100 | 100 | –
23 | N#Cc1ccc2cc(C(=O)Nc3c(Br)cc(C(F)(C(F)(F)F)C(F)(F)F)cc3C(F)(F)F)ccc2n1 [2-249] | 100 | 100 | 100 | –
24 | Cc1cc(C(F)(C(F)(F)F)C(F)(F)F)cc(OC(F)F)c1NC(=O)c1ccc2nc(C#N)ccc2c1 [2-261] | 100 | 100 | 100 | –
25 | N#Cc1ccc2cc(C(=O)Nc3c(Cl)cc(C(F)(C(F)(F)F)C(F)(F)C(F)(F)F)cc3OC(F)F)ccc2n1 (centres unmarked) [2-274] | 100 | 100 | 100 | –
26 | CCc1cc(C(F)(C(F)(F)F)C(F)(F)C(F)(F)F)cc(C)c1NC(=O)c1ccc2ncsc2c1 (centres unmarked) [4-33] | 100 | 100 | 100 | –
27 | N#Cc1ccc2cc(C(=O)Nc3c(Cl)cc(C(F)(C(F)(F)F)C(F)(F)F)cc3OC(F)F)ccc2n1 [Compound No. 2-231, N-[2-chloro-6-(difluoromethoxy)-4-(1,1,1,2,3,3,3-heptafluoropropan-2-yl)phenyl]-2-cyanoquinoline-6-carboxamide] | – | – | – | pest or weed control at 500 ppm (Aulacophora femoralis): 100%; pest or weed control at 100 ppm (Spodoptera litura): 100%; pest or weed control at 500 ppm (Tetranychus urticae): 100%
28 | CCc1cc(C(F)(C(F)(F)F)C(F)(F)C(F)(F)F)cc(C)c1NC(=O)c1ccc2nc(C#N)cc(Br)c2c1 (centres unmarked) [Compound No. 2-269, 4-bromo-2-cyano-N-[2-ethyl-6-methyl-4-(1,1,1,2,3,3,4,4,4-nonafluorobutan-2-yl)phenyl]quinoline-6-carboxamide] | – | – | – | pest or weed control at 500 ppm (Aulacophora femoralis): 100%; pest or weed control at 100 ppm (Spodoptera litura): 100%; pest or weed control at 500 ppm (Tetranychus urticae): 100%
29 | CCc1cc(C(F)(C(F)(F)F)C(F)(F)C(F)(F)F)cc(C)c1NC(=O)c1ccc2nc(C#N)sc2c1 (centres unmarked) [Compound No. 4-34, 2-cyano-N-[2-ethyl-6-methyl-4-(1,1,1,2,3,3,4,4,4-nonafluorobutan-2-yl)phenyl]-1,3-benzothiazole-6-carboxamide] | – | – | – | pest or weed control at 100 ppm (Spodoptera litura): 100%; pest or weed control at 500 ppm (Tetranychus urticae): 100%

— patent US8822691B2, “Pesticidal carboxamides” (Bayer CropScience AG, priority 2009, dated 2014)
